In this assay the test system is HCV replicon. Nature of the assay: HCV replicon replication assay (NPT ELISA) in Huh-7 replicon-containing cells. The settings on record: Hepatitis C virus. It is filed as cell-based. Summed up: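 Replication was scored by capture ELISA of neomycin phosphotransferase, whose level tracks replicon replication, after graded compound treatment. The cells were Huh-7 harbouring an HCV-IRES/neo/EMCV-IRES/NS3–NS5B/3′-NTR replicon, plated at 6000-7500 cells/well and dosed 24 h later at 60-70% confluence; interferon alpha was the positive control.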
A general note: Replicon systems follow genome replication, usually without infectious particles.

Setting [1] is: 72 h, HCV replicon in Huh-7 cells, three days incubation, read-out: EC50.

Where two headings read alike, the source gives them in different places.

Experimental findings from patent publication US9133115B2 (ACHILLION PHARMACEUTICALS, INC., priority 2008, dated 2015) are described below.

As a reminder, the EC50 is the midpoint of the concentration-response curve. Consider `C=C[C@H]1C[C@]1(NC(=O)[C@@H]1C[C@@H](Oc2cc(-c3ccccc3)nc3cc(OC)ccc23)CN1C(=O)[C@@H](CC(=O)N1CCCCC1)C(C)C)C(=O)NS(=O)(=O)C1CC1` [Compound 58, (2S,4R)-N-((1R,2R)-1-(cyclopropyl-sulfonylcarbamoyl)-2-vinylcyclopropyl)-1-((S)-2-isopropyl-4-oxo-4-(piperidin-1-yl)butanoyl)-4-(7-methoxy-2-phenylquinolin-4-yloxy)pyrrolidine-2-carboxamide], for which, under setting [1], the EC50 is below 1000 nM.
With `C=CC1C[C@@]1(NC(=O)[C@@H]1C[C@@H](Oc2cc(-c3ccccc3)nc3cc(OC)ccc23)CN1C(=O)C[C@H](C(=O)N1CCCCC1)C(C)(C)C)C(=O)NS(=O)(=O)C1CC1` (stereo partly drawn) [Compound 39, (2S,4R)-N-(1-(cyclo-propylsulfonyl-carbamoyl)-2-vinylcyclopropyl)-1-((S)-4,4-dimethyl-3-(piperidine-1-carbonyl)pentano-yl)-4-(7-methoxy-2-phenylquinolin-4-yloxy)pyrrolidine-2-carboxamide], the EC50 is below 1000 nM under setting [1] and at most 10000 nM (Huh-7).
Take `C=C[C@@H]1C[C@]1(NC(=O)[C@@H]1C[C@@H](Oc2cc(-c3ccccc3)nc3cc(OC)ccc23)CN1C(=O)[C@@H](CC(=O)N1CCCCC1)C(C)(C)C)C(=O)NS(=O)(=O)C(F)(F)F` [Compound 66, (2S,4R)-1-((S)-2-tert-butyl-4-oxo-4-(piperidin-1-yl)butanoyl)-4-(7-methoxy-2-phenylquinolin-4-yloxy)-N-((1R,2S)-1-(trifluoromethyl-sulfonylcarbamoyl)-2-vinylcyclo-propyl)pyrrolidine-2-carboxamide]: the EC50 under setting [1] is 1000 to 10000 nM.
